Data from patent US12054495B2, “Substituted macrocyclic compounds and related methods of treatment” (Alkermes, Inc., priority 2019, dated 2024).
Read-outs that look alike come from different tables or passages of the source.

Assays:
[1] = amide bond, HATU/DIEA, 2.0 h
[2] = target: T1, human orexin-2 receptor (OX2R) (Homo sapiens, UniProt O43614); experiment: Human OX2R IP1 assay; format: cell-based; settings: T-Rex CHO cells stably overexpressing human OX2R, IP1 accumulation, 1 hr at 37 degrees C; mean EC50; ∧ = racemic mixture
T1 construct: expressed in transfected cells
T1 sequence (O43614 1-444): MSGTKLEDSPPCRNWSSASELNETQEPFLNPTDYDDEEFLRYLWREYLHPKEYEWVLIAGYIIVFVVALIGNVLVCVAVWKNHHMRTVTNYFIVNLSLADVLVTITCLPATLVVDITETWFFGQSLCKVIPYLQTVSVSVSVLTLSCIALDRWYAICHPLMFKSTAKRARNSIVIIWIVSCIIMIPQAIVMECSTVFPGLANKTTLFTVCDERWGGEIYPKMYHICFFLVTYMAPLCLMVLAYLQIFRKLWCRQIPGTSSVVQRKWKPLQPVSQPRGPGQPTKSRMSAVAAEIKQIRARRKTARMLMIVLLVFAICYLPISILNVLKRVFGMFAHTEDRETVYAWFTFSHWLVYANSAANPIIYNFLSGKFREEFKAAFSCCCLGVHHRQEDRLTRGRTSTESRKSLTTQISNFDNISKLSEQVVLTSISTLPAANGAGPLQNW
Protocol: T-Rex CHO cells stably overexpressing the human orexin-2 receptor (OX2R) were induced overnight with 1 μg/mL of doxycycline in a T225 flask. 24 hours post induction, cells were lifted with accutase and plated into a 384-well proxy plate at 30,000 cells/well. Cells were then treated with different test compounds in 1× stimulation buffer containing 10 mM Hepes, 1 mM CaCl2), 0.5 mM MgCl2, 4.2 mM KCl, 146 mM NaCl, 5.5 mM glucose, and 50 mM LiCl, pH 7.4, for 1 hr at 37 degrees C. Following incubation, the reaction was terminated by the addition of detection mix, which is composed of IP1-d2 and anti-IP1-cryptate diluted in lysis buffer as well as 1× stimulation buffer. The plates were allowed to incubate for 1 hour at room temperature and were then read in the EnVision® multimode plate reader, measuring inositol phosphate levels.
Cisbio IP1 is a cell-based functional assay quantifying the accumulation of inositol monophosphate (IP), a metabolite released as a result of orexin 2 receptor activation through the phospholipase C-Gq signaling pathway. This is a competitive immunoassay in which the IP1 produced by the cells upon receptor activation competes with the IP1 analog coupled to the d2 fluorophore (acceptor) for binding to an anti-IP1 monoclonal antibody labeled with Eu cryptate (donor). The measured HTRF-FRET based signal is inversely proportional to the IP1 concentration produced.
The EC50 values reported in Table 2 were obtained according to the human OX2R IP1 assay described above. Data are the mean EC50 values ±S.E.M. The compound methyl (2R,3S)-3-((methylsulfonyl)amino)-2-(((cis-4-phenylcyclohexyl)oxy)methyl)-piperidine-1-carboxylate is a reference compound which is disclosed in Example 5 of PCT publication no. WO2017/135306.

[3] = tested on: MDR1; experiment: MDCK-MDR1 permeability assay; format: in vitro ADME; settings: dog; for Papp A→B at 2 h, 3 μM: MDCK-MDR1, MDCK-MDR1 cells, apical to basolateral, 3 μM test compound, 2 hours at 37 degrees C; for efflux ratio at 2 h, 3 μM: MDCK-MDR1, Papp (basolateral to apical) divided by Papp (apical to basolateral), MDCK-MDR1 cells, read-out: Efflux ratio (ER)
Protocol: The bidirectional permeability (Apical to Basal and Basal to Apical directions) of test compounds in MDCK-MIDR1 cells were evaluated using MDCK-MIDR1 cells seeded in Solvo PreadyPort™ MIDCK 96-well plate. Once the plate was received from ReadyCell (Barcelona, Spain), it was treated as per PreadyPort™ user's manual.
For the Apical to Basolateral (A→B) permeability, 80 μL of test compound (3 μM) co-dosed with LY (Lucifer Yellow) (100 μM) in HBSS (Hank's Balanced Salt Solution) assay buffer was added to the donor side (A) while 250 μL of HBSS buffer was added to the receiver side (B). For the Basolateral to Apical (B→A) permeability, 255 μL of test compound (3 μM) in HBSS assay buffer was added to the donor side (B) while 75 μL of HBSS buffer containing LY (100 μM) was added to the receiver side (A).
The plate was placed in an incubator set at 37 degrees C. After 10 minutes of pre-warming, 5 μL aliquot was taken from donor compartment and set aside as the dosing solution. The MDCK-MDR1 incubation plate was placed back into the incubator for 2 hours of incubation at 37 degrees C. After 2 hours of incubation, 25 μL and 5 μL aliquots were removed from the receiver and donor sides, respectively. To the 5 μL aliquots taken from the donor sides (before and after a 2-hour incubation) were diluted with 20 μL of the HBSS buffer. All samples were mixed with 150 μL with acetonitrile containing internal standard (IS) and 200 μL water, and analyzed by LC-MS/MS.
The apparent permeability (Papp) was calculated using the following formula: Papp=dQ/dt×1/A×C0 where: • dQ/dt: amount of translocated material over incubation time (nmol/s) • A: area of insert (0.14 cm^2 for PreadyPort™ MDR1-96) • C0: initial concentration of product applied in apical (A→B) or basal (B→A) compartment (nmol/mL)
The efflux ratio (ER) was measured by dividing the Papp (basolateral to apical direction) by Papp (apical to basolateral direction). It is a general measure of the involvement of active processes. An ER>2 is considered positive for active transport.
The data reported in Table 3 were obtained according to the MDCK-MIDR1 permeability assay described above.

[4] = Hepatocytes stability assay (human hepatocytes); format: in vitro ADME; settings: both sexes, cryopreserved hepatocytes, 1 μM test compound, 1×10^6 cell/mL, 37 degrees C, read-out: CLint (μL/min/million cells)
Protocol: (§1) In vitro metabolic stability was assessed using cryopreserved hepatocytes from male Sprague Dawley rats and a pool of 50 mixed gender humans (BioIVT, Baltimore, MD). The incubation mixtures were prepared by mixing 250 μL of pre-warmed KHB (Krebs-Henseleit buffer) containing 2×10^6 cell/mL of hepatocytes with 250 μL of pre-warmed KHB buffer containing 2 μM of test compounds in a 48-well plate, giving a final concentration of 1 μM test compound (0.1% DMSO) and 1×10^6 cell/mL of hepatocytes. The reaction mixture was incubated at 37 degrees C. A 50 μL aliquot of incubation mixture was taken at time points (0, 15, 30, 60, 120 and 240 minutes) and transferred into a 96-well plate containing 300 μL ice-cold acetonitrile (containing 30 ng/mL of labetalol and 10 ng/mL of Naltrexone-d3 as internal standards) and immediately placed in ice to terminate the reaction. Samples were centrifuged, and supernatants were transferred into 96-well plates for liquid chromatography with tandem mass spectrometry (LC-MS/MS) analysis to monitor the depletion of the test compound.
(§2) Data was calculated as percent remaining by assuming zero-minute time point peak area ratio (analyte/IS) as 100% and dividing remaining time point peak area ratios by zero-minute time point peak area ratio. Data were fitted to a first-order decay model to determine half-life. From a plot of log (ln) peak area against time, the slope of the line was determined. Subsequently, half-life (T1/2) and intrinsic clearance (CLint) were calculated using the equations below: Elimination rate constant (k)=(−slope) Half-life (T1/2)min=0.693/k Intrinsic Clearance (CLint) (mL/min/million cells)=(V×0.693)/T1/2 V=incubation volume mL/number of cells The in vitro T1/2 was converted to in vitro intrinsic clearance (CLint,hep) in units of mL/min/kg using the formula shown below:
(§3) [formula] The in vitro intrinsic clearance (CLint,hep) was scaled to in vivo hepatic clearance (CL,hep) using the following equation which was adapted from a well-stirred model.
(§4) [formula] where Q is the liver blood flow and fu is the fraction unbound (assumed to be unity in this case). All parameters used in the calculation are shown below (Table 4).
(§5) The extraction ratio (ER) was calculated by dividing the hepatic clearance of a compound to the liver blood flow. The data reported in Table 5 were obtained according to the human hepatocytes stability assay described above.

[5] = tested on: human hepatocytes; experiment: Hepatocytes stability assay (human hepatocytes); format: in vitro ADME; settings: scaled hepatic clearance divided by liver blood flow, fu assumed unity
Protocol: as §1, §2, §3, §4, §5

SMILES	ring closure, isolated yield ([1]; from CC(C)(C)OC(=O)N([C@H]1CCN[C@H]1COC1CCC(c2ccccc2OCC(=O)O)CC1)S(C)(=O)=O, 13-membered ring, MeCN, 2.4 mM)	ring closure, isolated yield ([1]; from CC(C)(C)OC(=O)N([C@H]1CCN[C@H]1COC1CCC(c2cccnc2OCC(=O)O)CC1)S(C)(=O)=O, 13-membered ring, MeCN, 9.5 mM)	ring closure, isolated yield ([1]; from CC(C)(C)OC(=O)NC1CCCNC1COC1CCC(c2ccncc2OCC(=O)O)CC1, 13-membered ring, MeCN, 0.22 mM)	ring closure, isolated yield ([1]; from CC(C)(C)OC(=O)N[C@H]1CCCN[C@H]1COC1CCC(c2ccccc2OCCCC(=O)O)CC1, 15-membered ring, MeCN/DMF 8:1, 18.1 mM)	ring closure, isolated yield ([1]; from CC(C)(C)OC(=O)N[C@H]1CCCN[C@H]1COC1CC=C(c2c(F)cccc2OCC(=O)O)CC1, 13-membered ring, MeCN, 2.1 mM)	EC50 [2]	Papp A→B at 2 h, 3 μM [3]	efflux ratio at 2 h, 3 μM [3]	hepatocyte CLint at 1 μM [4]	Extraction Ratio (ER) [5]
CC(C)(C)OC(=O)N([C@H]1CCN2C(=O)COc3ccccc3C3CCC(CC3)OC[C@@H]12)S(C)(=O)=O	31%									
CC(C)(C)OC(=O)N([C@H]1CCN2C(=O)COc3ncccc3C3CCC(CC3)OC[C@@H]12)S(C)(=O)=O		41.4%								
CC(C)(C)OC(=O)NC1CCCN2C(=O)COc3cnccc3C3CCC(CC3)OCC12 (centres unmarked)			23.4%							
CC(C)(C)OC(=O)N[C@H]1CCCN2C(=O)CCCOc3ccccc3C3CCC(CC3)OC[C@@H]12				77.9%						
CC(C)(C)OC(=O)N[C@H]1CCCN2C(=O)COc3cccc(F)c3C3=CCC(CC3)OC[C@@H]12 (some centres unmarked)					71%					
CS(=O)(=O)N[C@@H]1CCCN2C(=O)COc3cccnc3[C@H]3CC[C@H](CC3)OC[C@H]12 (racemic) [Compound 15]						100 to 1000 nM	0.08 ×10⁻⁶ cm/s	22	< 1.9 µL/min/1e6 cells	<0.22
CS(=O)(=O)N[C@@H]1CCCN2C(=O)COc3ccncc3[C@H]3CC[C@H](CC3)OC[C@H]12 (racemic) [Compound 45]						100 to 1000 nM	0.15 ×10⁻⁶ cm/s	12	< 1.9 µL/min/1e6 cells	<0.22
CS(=O)(=O)N[C@@H]1CCCN2C(=O)COc3cnccc3[C@H]3CC[C@H](CC3)OC[C@H]12 (racemic) [Compound 47]						< 100 nM	0.09 ×10⁻⁶ cm/s	49	3 µL/min/1e6 cells	0.31
CS(=O)(=O)N[C@H]1CCCN2C(=O)COc3ccccc3C3CC[C@@H](CO3)OCC12 (some centres unmarked) [Compound 8]						< 100 nM	0.48 ×10⁻⁶ cm/s	3.8	5.8 µL/min/1e6 cells	0.46
CS(=O)(=O)N[C@H]1CCCN2C(=O)COc3ccccc3C3CC[C@H](CO3)OCC12 (some centres unmarked) [Compound 9]						< 100 nM	0.45 ×10⁻⁶ cm/s	2.6	6.7 µL/min/1e6 cells	0.50
C[C@@H]1Oc2ccccc2C2CCC(CC2)OCC2[C@@H](NS(C)(=O)=O)CCCN2C1=O (some centres unmarked) [Compound 37]						< 100 nM	0.91 ×10⁻⁶ cm/s	27	30 µL/min/1e6 cells	0.82
C[C@H]1Oc2ccccc2C2CCC(CC2)OCC2[C@@H](NS(C)(=O)=O)CCCN2C1=O (some centres unmarked) [Compound 38]						< 100 nM	0.77 ×10⁻⁶ cm/s	18	30 µL/min/1e6 cells	0.82
C[C@H]1CN2CCC[C@H](NS(C)(=O)=O)C2COC2CCC(CC2)c2ccccc2O1 (some centres unmarked) [Compound 48]						< 100 nM	7.3 ×10⁻⁶ cm/s	1.5	60 µL/min/1e6 cells	0.90
[2H][C@@H]1[C@@H]2C[C@H]([2H])[C@@]([2H])(c3cc(F)cc(F)c3OCC(=O)N3CCC[C@H](NS(C)(=O)=O)C3CO2)[C@@H]1[2H] (some centres unmarked) [Compound 50]						< 100 nM	1.2 ×10⁻⁶ cm/s	21	16 µL/min/1e6 cells	0.70
[2H]C1([2H])COc2ccccc2C2CCC(CC2)OCC2[C@@H](NS(C)(=O)=O)CCCN21 (some centres unmarked) [Compound 60]						100 to 1000 nM	8.8 ×10⁻⁶ cm/s	1.4	54 µL/min/1e6 cells	0.89
C[C@H]1COc2ccccc2C2CCC(CC2)OCC2[C@@H](NS(C)(=O)=O)CCCN21 (some centres unmarked) [Compound 62]						> 1000 nM	6.8 ×10⁻⁶ cm/s	2.2	18 µL/min/1e6 cells	0.89
C[C@@H]1COc2ccccc2C2CCC(CC2)OCC2[C@@H](NS(C)(=O)=O)CCCN21 (some centres unmarked) [Compound 63]						> 1000 nM	9.1 ×10⁻⁶ cm/s	0.75	40 µL/min/1e6 cells	0.86
